“Also recorded” adds a separate entry of the source.

This note sets out measurements from patent publication US8956824B2, “Methods for identifying allosteric modulators of ship polypeptides” (British Columbia Cancer Agency Branch, priority 2006, dated 2015).

Data set [1] concerns SHIP1+/+ and SHIP1−/− BMmφs. Kind of data set: LPS-stimulated TNFα production in BMmφs. The conditions noted are these: 30 min pretreatment, 10 ng/mL LPS, ELISA. Type of data set: cell-based, mouse. On the procedure:
Production of SHIP+/+ and SHIP-/- BMMCs and BMnφs. […] LPS stimulation of BMmφs. For the analysis of LPS-stimulated TNFα production, 2 ×10^5 cells were plated the night before in 24 well plates in BMmφp medium. […] Data are expressed as the mean +/- SEM of triplicates and experiments were repeated 3 times. For analysis of intracellular signaling, 2×10^6 cells were plated the night before in 6 cm tissue culture plates. […] Cells were washed with 4° C. PBS and resuspended in lysis buffer (50 mM Hepes, 2 mM EDTA, 1mM NaVO4 , 100 mM NaF, 50 mM NaPPi and 1%NP4O) supplemented with COMPLETETM Protease Inhibitor Cocktail (Roche, Montreal, Canada). Lysates were rocked at 4° C. for 30 min and clarified by centrifuging 20 min at 12000×g. Lysates were then made 1× in Laemmli's buffer, boiled 2 min and loaded onto 7.5% SDS polyacrylamide […]. Immunoblot analysis for phospho PKB (Cell Signalling, Mississauga, Ont), SHIP1 and actin (Santa Cruz, Santa Cruz, Calif.) were carried out as described previously (18). Results are representative of 3 independent experiments.

The subject of data set [2] is SHIP1+/+ and SHIP1−/− BMmφs. Kind of data set: LPS-stimulated PKB phosphorylation in BMmφs (immunoblot). The format is cell-based, mouse. The conditions noted are these: 30 min pretreatment, 10 ng/mL LPS 15 min. The protocol:
LPS stimulation of BMmφs. For the analysis of LPS-stimulated TNFα production, 2 ×10^5 cells were plated the night before in 24 well plates in BMmφp medium. The next day, the medium was changed and AQX-016A or carrier was added to cells at the indicated concentrations for 30 min prior to the addition of 10 ng/mL LPS. Supernatants were collected after 1 hr for TNFα determination by ELISA (BD Biosciences, Mississauga, ON, Canada). Data are expressed as the mean +/− SEM of triplicates and experiments were repeated 3 times. For analysis of intracellular signaling, 2×10^6 cells were plated the night before in 6 cm tissue culture plates. The next day, the cells were cultured in BMmφp medium without M-CSF for 1 hr at 37° C. and then pretreated with AQX-016A or carrier for 30 min prior to the addition of 10 ng/mL LPS for 15 min. Cells were washed with 4° C. PBS and resuspended in lysis buffer (50 mM Hepes, 2 mM EDTA, 1mM NaVO4 , 100 mM NaF, 50 mM NaPPi and 1%NP4O) supplemented with COMPLETE™ Protease Inhibitor Cocktail (Roche, Montreal, Canada). Lysates were rocked at 4° C. for 30 min and clarified by centrifuging 20 min at 12000×g. Lysates were then made 1× in Laemmli's buffer, boiled 2 min and loaded onto 7.5% SDS polyacrylamide cells. […]
In general terms: In western blotting, separated proteins are transferred to a membrane and probed.

The next data set concerns LPS-induced plasma TNFα. As to the kind of experiment: Mouse septicemia model. Type of data set: in vivo. The conditions noted are these: for plasma TNFα level after LPS challenge: oral, 30 min prior to IP 2 mg/kg LPS, blood 2 h later, AQX-016A 20 mg/kg. From the text:
Mouse septicemia model. […] Blood was drawn 2 hrs later for determination of plasma TNFα by ELISA. Results are representative of 3 independent experiments.

Data set [3] deals with DNFB-induced ear inflammation. Kind of data set: Mouse acute cutaneous anaphylaxis model. Type of data set: in vivo. The conditions noted are these: topical. On the procedure:
Mouse acute cutaneous anaphylaxis model. 6-8 week old CD1 mice (University of British Columbia Animal Facility, Vancouver, BC) were sensitized to the hapten DNP by cutaneous application of 25 μL of 0.5% dinitroflourobenzene (DNFB) (Sigma, Oakville, Ont) in acetone to the shaved abdomen of mice for two consecutive days. In the AQX-016A experiments shown in FIG. 2F, 20 μCi of tritiated thymidine [3H]-Tdr (GE Healthcare, Piscataway, N.J.) was injected EP one week after the first DNFB application. [3H]-Tdr labels rapidly dividing cells of the mouse, including neutrophils (21). […] The resulting inflammatory cell infiltration was quantitated by taking a 6mm diameter punch from the ear 1 hr later for dissolution in SOLVABLE™ (Perkin Elmer-Packard, Woodbridge, Ont) and liquid scintillation counting as described (21). The ability of test substances to inhibit mast cell degranulation was then determined by calculating the ratio of [3H]-Tdr in the test (right) ear vs the control (left) ear as described (21). […]
In the later AQX-MN100 experiments, shown in FIG. 3E, the mice were sensitized as above with DNFB. […] Optical density readings at 450 nm were taken over 10 min at 30 s intervals. MPO activity was calculated as described (22) and expressed as Units per mg of protein per mL of lysate. […]

For data set [4], the system named is 100 protein kinase and phosphatase targets. As to the kind of experiment: In vitro kinase/phosphatase screen. The format is biochemical. Particulars: 2 μM final concentration; changes <25% not considered significant. On the procedure: Protein kinase assays were performed at 30° C. for 15 min in a final volume of 25 μL. The assay was initiated by the addition of [32P]-ATP and the reaction mixture incubated at 30° C. for 15 minutes. After the 15 minute incubation period, the assay was terminated by spotting 20 μl of the reaction mixture onto phosphocellulose P81 plate. The phosphocellulose P81 plate was washed 3 times for approximately 15 minutes each in a 1% phosphoric acid solution. The radioactivity on the P81 plate was counted in the presence of scintillation fluid in a scintillation counter. Protein phosphatase activities were determined using pNPP as substrate. Assays were performed at 37° C. for 15 min in a […]. The assay was started by incubating the reaction mixture at 37° C. for 15 minutes. After the 15 minutes incubation period, the assay was terminated by the addition of 25 μl of 2N NaOH stopping solution. The absorbance of the reaction solution was measured in a spectrophotometer at 410 nm. The activity of the enzymes in the presence of AQX-MN100 was compared to that in the vehicle control and expressed as a % change in activity relative to that observed in the vehicle control. Changes in activity of <25% were not considered significant. _

With `Cc1cc(O)c(O)c2c1[C@]1(C)CC[C@H]3C(C)(C)CCC[C@]3(C)[C@H]1C2` [AQX-016A], the “LPS-stimulated TNFα production, SHIP1+/+ vs SHIP1−/− macrophages” value in data set [1] is on record as “preferentially inhibited LPS-stimulated TNFα production in SHIP1+/+ than in SHIP1−/−”. The “LPS-stimulated PKB phosphorylation, SHIP1+/+ vs SHIP1−/− BMmφs” value in data set [2] is reported as “preferentially inhibited, in a dose dependent manner, LPS-stimulated PKB phosphorylation in SHIP1+/+ but not in SHIP1−/−”. In the data set on LPS-induced plasma TNFα (concluded from septicemia (oral) and cutaneous anaphylaxis (topical) models), the bioavailability entry was “both orally and topically bioavailable”. Besides, the “plasma TNFα level after LPS challenge” value in the data set on LPS-induced plasma TNFα is recorded as “reduced the level of TNFα to the same extent as the control”. Also, the “allergen-induced inflammation (inflammatory cell recruitment to ear, [3H]-Tdr)” value in data set [3] (30 min prior to DNFB, vs vehicle control-treated ear) is on record as “dramatically inhibited allergen-induced inflammation”.
On to `Cc1cc(O)cc2c1[C@]1(C)CC[C@H]3C(C)(C)CCC[C@]3(C)[C@H]1C2` [AQX-MN100], for which the “LPS-stimulated TNFα production, SHIP1+/+ vs SHIP1−/− macrophages” value in data set [1] was “selectively inhibited TNFα production from SHIP1+/+ but not SHIP1−/− macrophages; also recorded: inhibits TNFα production from LPS stimulated SHIP1+/+ but not −/− BMmφs”. Besides, the “plasma TNFα level after LPS challenge” value in the data set on LPS-induced plasma TNFα is recorded as “efficiently inhibited the LPS-induced elevation of plasma TNFα levels; also recorded: inhibits LPS-induced plasma TNFα levels in mice”. For the same compound, in data set [3] (P-value <0.02 vs vehicle), the “myeloperoxidase (MPO) levels in ears of allergen-challenged mice” value is “reduced the levels of the inflammatory cell (neutrophil) specific myeloperoxidase enzyme; also recorded: inhibits DNFB-induced MPO in sensitized mice”. The “activity on a panel of 100 kinases and phosphatases” value in data set [4] is recorded as “very little activity; also recorded: selectively enhances SHIP enzyme activity”.
